# Tests used:
# Experiment in all cases: relative viability (nuclei count vs DMSO), 5 days (fraction); higher = more cells survive
# [1] = compound: C[As](C)SC[C@H](NC(=O)CC[C@H](N)C(=O)O)C(=O)NCC(=O)O [Darinaparsin] + CC1(C)CCC(c2ccc(Cl)cc2)=C(CN2CCN(c3ccc(C(=O)NS(=O)(=O)c4ccc(N[C@H](CCN5CCOCC5)CSc5ccccc5)c(S(=O)(=O)C(F)(F)F)c4)cc3)CC2)C1 [Navitoclax] (partner 0.5 µM)
# How it was run: (§1)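 Cells from lung cancer lines were seeded into 1536-well plates and, one day later, dosed by pin tool. Treatments were either a single drug or a fixed dose of an anchor drug with five library-drug doses (not always all listed) in √10 steps. After 5 days, nuclei were stained in a one-step fixation (final 0.05% Triton X-100, 1% formaldehyde, 1 ug/ml Hoechst) and counted on 4× images, and relative viability is the treated-to-vehicle nuclei ratio, as the median of duplicate plates.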
# [2] = compound: C1CC2=C(C1)C=C(C=C2)OC3=NC(=C4C(=N3)N(C=N4)CC5=CC=C(C=C5)C6=CC=CC=C6)N[C@@H](CC7=CC=CC=C7)CO [QS11] + CC(=O)Nc1cccc(-n2c(=O)n(C3CC3)c(=O)c3c(Nc4ccc(I)cc4F)n(C)c(=O)c(C)c32)c1 [Trametinib] (partner 0.02 µM)
# How it was run: as §1
# [3] = compound: C[As](C)SC[C@H](NC(=O)CC[C@H](N)C(=O)O)C(=O)NCC(=O)O [Darinaparsin] + O=C(c1cc(Cc2n[nH]c(=O)c3ccccc23)ccc1F)N1CCN(C(=O)C2CC2)CC1 [Olaparib] (partner 8 µM)
# How it was run: as §1
# [4] = compound: C[As](C)SC[C@H](NC(=O)CC[C@H](N)C(=O)O)C(=O)NCC(=O)O [Darinaparsin] + N=C(N)NC(=N)NCCc1ccccc1 [Phenformin] (partner 250 µM)
# How it was run: as §1
Cell Line,relative viability ([1]; first compound 0.08 µM),relative viability ([1]; first compound 0.8 µM),relative viability ([1]; first compound 2.53 µM),relative viability ([1]; first compound 8 µM),relative viability ([2]; first compound 0.08 µM),relative viability ([2]; first compound 0.253 µM),relative viability ([2]; first compound 0.8 µM),relative viability ([2]; first compound 2.53 µM),relative viability ([2]; first compound 8 µM),relative viability ([3]; first compound 0.08 µM),relative viability ([3]; first compound 0.8 µM),relative viability ([3]; first compound 2.53 µM),relative viability ([3]; first compound 8 µM),relative viability ([4]; first compound 0.08 µM),relative viability ([4]; first compound 0.8 µM),relative viability ([4]; first compound 2.53 µM),relative viability ([4]; first compound 8 µM)
201T,1.21,1.15,1.19,1.12,0.729,0.739,0.566,0.704,0.61,0.942,0.851,0.803,0.863,0.478,0.451,0.404,0.5
A549,1.42,1.29,1.16,1.33,,,,,,0.416,0.337,0.31,0.471,0.121,0.114,0.192,0.163
A-427,0.961,1,1.03,0.98,0.778,0.78,,0.805,0.767,0.71,0.8,0.787,0.791,0.348,0.316,0.298,0.36
ABC-1,,,,,,,,,,1.14,0.99,1.02,1.08,0.256,0.21,0.234,0.264
BEN,0.0561,0.0673,0.0517,0.0548,1.06,1.11,1.08,1.12,1.11,1.21,0.993,1.06,1.08,0.263,0.268,0.263,0.265
CAL-12T,1.48,1.11,1.27,1.37,0.313,0.328,0.355,0.367,0.358,0.875,0.617,0.822,0.698,0.657,0.534,0.478,0.605
COR-L23,1.38,1.12,0.945,1.16,0.577,0.605,0.585,0.551,0.598,0.331,0.323,0.316,0.358,0.544,0.405,0.379,0.566
COR-L 105,0.883,0.709,,0.82,0.433,0.424,0.414,0.415,0.445,0.747,0.695,0.758,0.69,0.505,0.486,0.433,0.451
Calu-6,1.13,0.921,0.752,0.745,,,,,,0.592,0.59,0.594,0.556,,,,
ChaGo-K-1,1.19,0.905,1.05,0.956,,0.984,0.972,0.886,0.931,0.469,0.417,0.385,0.401,0.494,0.535,0.515,0.575
EBC-1,0.4,0.351,0.375,0.352,,,,,,0.811,0.731,0.603,0.511,,,,
EKVX,1.14,0.825,0.918,1.15,0.288,0.618,0.3,0.306,0.321,0.878,0.697,0.801,0.735,0.244,0.24,0.228,0.243
EMC-BAC-2,1.24,1.14,1,1.72,0.814,0.954,0.573,0.885,0.804,0.475,0.447,0.614,0.461,0.559,0.505,0.514,0.559
EPLC-272H,1.26,1.37,1.07,0.983,,0.32,0.3,0.28,0.3,0.659,0.958,0.514,0.615,,0.237,0.251,0.267
H3255,0.542,0.513,0.458,0.674,0.577,0.703,,0.631,0.585,0.644,0.518,0.606,0.632,0.381,0.384,0.363,0.332
HARA,1.39,1.07,1.08,1.37,0.652,,0.562,0.48,0.634,0.598,,0.769,0.779,0.542,0.416,0.38,0.728
HCC-15,0.893,0.7,0.651,0.83,0.307,0.388,0.335,0.319,0.314,0.762,0.712,0.738,0.722,0.642,0.481,0.353,0.61
HCC-44,1.18,1,0.864,1.19,1.19,0.908,0.599,1.02,1.02,1.06,0.993,0.942,1.03,0.312,0.197,0.223,0.169
HCC-78,0.841,0.729,0.842,0.84,0.771,0.765,0.643,0.883,0.781,0.884,0.712,0.851,0.955,0.728,0.772,0.819,0.745
HCC-366,1.3,1.06,1.12,1.41,0.348,0.346,,0.218,0.116,0.502,,0.328,0.42,0.65,0.649,0.588,0.665
HCC-827,1.07,1.07,1.05,1.05,0.507,0.559,0.595,0.698,0.557,0.784,0.638,0.65,0.759,0.41,0.417,0.331,0.435
HOP-62,1.39,1.2,0.963,1.13,0.373,0.393,0.38,0.357,0.42,0.56,0.487,0.402,0.525,0.964,0.759,0.494,0.8
IA-LM,1.15,0.974,0.969,0.739,,,,,,0.93,0.936,0.982,0.884,,,,

Cell Line,relative viability ([1]; first compound 0.08 µM),relative viability ([1]; first compound 0.8 µM),relative viability ([1]; first compound 2.53 µM),relative viability ([1]; first compound 8 µM),relative viability ([2]; first compound 0.08 µM),relative viability ([2]; first compound 0.253 µM),relative viability ([2]; first compound 0.8 µM),relative viability ([2]; first compound 2.53 µM),relative viability ([2]; first compound 8 µM),relative viability ([3]; first compound 0.08 µM),relative viability ([3]; first compound 0.8 µM),relative viability ([3]; first compound 2.53 µM),relative viability ([3]; first compound 8 µM),relative viability ([4]; first compound 0.08 µM),relative viability ([4]; first compound 0.8 µM),relative viability ([4]; first compound 2.53 µM),relative viability ([4]; first compound 8 µM)
LC-2-ad,0.551,0.324,0.421,0.487,0.906,0.985,0.606,0.843,0.962,0.739,0.748,0.669,0.719,0.614,0.5,0.564,0.484
LCLC-103H,,,,,0.705,0.681,,0.68,0.595,0.882,0.698,0.742,0.861,0.36,0.365,0.318,0.349
LK-2,0.968,0.709,0.746,1.07,0.702,1.03,0.778,0.81,0.841,0.727,0.546,0.644,0.731,0.399,,0.346,0.429
LOU-NH91,0.699,0.701,0.642,0.604,0.797,0.742,0.743,0.819,0.767,0.932,0.869,0.912,0.964,0.731,0.683,0.692,0.705
LU99A,0.77,0.886,0.777,0.944,0.532,0.626,0.517,0.5,0.533,0.275,0.252,0.125,0.246,0.927,0.856,0.897,0.78
LXF-289,1,0.975,0.809,1.05,0.671,0.711,0.583,0.621,0.629,1.46,1.09,0.841,1.03,0.556,0.523,0.471,0.556
NCI-H23,1.09,0.917,0.963,1.02,0.359,0.385,0.283,0.297,0.318,0.293,0.291,0.363,0.331,0.935,0.839,0.86,0.842
NCI-H322M,1.25,1.17,1.13,1.33,0.547,0.543,0.565,0.582,0.513,0.763,0.763,0.713,0.726,0.886,0.795,0.663,0.795
NCI-H358,,,,,0.117,0.136,0.167,0.153,0.157,0.701,0.61,0.585,0.569,0.429,0.387,0.331,0.376
NCI-H441,0.773,0.593,0.615,0.962,0.59,0.424,0.545,0.56,0.486,0.647,0.538,0.734,0.502,1.13,0.821,0.597,0.88
NCI-H460,,1.05,0.978,1.91,0.13,0.158,0.131,0.0849,0.0752,0.614,0.413,0.435,0.324,0.553,0.557,0.506,0.884
NCI-H520,1.41,0.976,1.17,1.11,0.676,0.789,0.83,0.65,0.755,0.378,0.321,0.354,0.313,0.669,0.481,0.453,0.625
NCI-H522,,,,,0.795,0.791,0.675,0.799,0.943,0.621,0.718,0.703,0.543,0.711,0.597,0.611,0.658
NCI-H650,,,,,0.825,0.934,1.06,0.959,0.983,0.368,0.361,0.418,0.34,0.476,0.479,0.428,0.484
NCI-H661,,,,,0.624,0.594,0.473,0.46,0.477,0.799,0.787,0.699,0.815,0.261,0.25,0.299,0.275
NCI-H1299,1.03,1.08,1.04,1.1,,,,,,1.02,0.928,0.98,0.981,,,,
NCI-H1563,,,,,,,,,,,,,,0.773,0.619,0.658,0.642
NCI-H1623,,,,,,,,,,,,,,0.619,0.572,0.587,0.621
NCI-H1648,,,,,0.603,0.535,0.423,0.557,0.486,,0.765,,1.05,,,,
NCI-H1703,1.63,1.27,1.32,0.926,,,,,,0.5,0.587,0.389,0.516,,,,
NCI-H2342,,,,,0.775,0.769,0.838,0.88,0.743,0.484,0.398,0.461,0.415,0.596,0.627,0.567,0.628
SW 900,,,,,0.797,0.724,0.724,0.721,0.453,0.837,,0.85,0.773,0.836,0.475,0.701,0.643

# From the supplement of paper PMC10307832
